In ChEMBL document CHEMBL1201862, “PubChem BioAssay data set” (2004):
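Compound exposure: 48 hours, 5 concentrations, 96-well plates. GI50 marks 50% less growth.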 The source made the active and inactive calls. Cut-off read from the data, not from the text of the source: active = GI50 up to about 1.1 µM and inactive = higher.

Tests used:
Assay in all cases: NCI-60 cell line screen, 48 h
ACHN = test system: ACHN
CAKI-1 = test system: CAKI-1
COLO 205 = test system: COLO 205
IGROV-1 = test system: IGROV-1
K562 = test system: K562
M14 = test system: M14
NCI-H226 = test system: NCI-H226
OVCAR-5 = test system: OVCAR-5
OVCAR-8 = test system: OVCAR-8
SF-539 = test system: SF-539
SN12C = test system: SN12C
SNB-19 = test system: SNB-19
UACC-62 = test system: UACC-62
HCC 2998 = test system: HCC 2998
MDA-MB-231 = test system: MDA-MB-231
MDA-MB-435 = test system: MDA-MB-435
MDA-N = test system: MDA-N
T47D = test system: T47D
Hs-578T = test system: Hs-578T

Compound | GI50 (ACHN) | GI50 (CAKI-1) | GI50 (COLO 205) | GI50 (IGROV-1) | GI50 (K562) | GI50 (M14) | GI50 (NCI-H226) | GI50 (OVCAR-5) | GI50 (OVCAR-8) | GI50 (SF-539) | GI50 (SN12C) | GI50 (SNB-19) | GI50 (UACC-62) | GI50 (HCC 2998) | GI50 (MDA-MB-231) | GI50 (MDA-MB-435) | GI50 (MDA-N) | GI50 (T47D) | GI50 (Hs-578T)
CCOC(=O)C/C(=N\c1cc(C)on1)N(CC)CC.[O-][Cl+3]([O-])([O-])O | > 100 µM (inactive) | > 100 µM (inactive) | > 100 µM (inactive) | > 100 µM (inactive) | > 100 µM (inactive) | > 100 µM (inactive) | > 100 µM (inactive) | > 100 µM (inactive) | > 100 µM (inactive) | > 100 µM (inactive) | > 100 µM (inactive) | > 100 µM (inactive) | > 100 µM (inactive) |  |  |  |  |  | 
CCCCN(CCCC)CCC(O)c1cc(-c2ccc(C(F)(F)F)cc2)nc(-c2ccc(C(F)(F)F)cc2)c1 (configuration not stated) | > 100 µM (inactive) | > 100 µM (inactive) | > 100 µM (inactive) | > 100 µM (inactive) | > 100 µM (inactive) | > 100 µM (inactive) |  | > 100 µM (inactive) | > 100 µM (inactive) | > 100 µM (inactive) | > 100 µM (inactive) | > 100 µM (inactive) | > 100 µM (inactive) | > 100 µM (inactive) | > 100 µM (inactive) | > 100 µM (inactive) | > 100 µM (inactive) | > 100 µM (inactive) | 
Cc1cc(Cl)ccc1C(=O)c1ccc2ccccc2c1C(=O)O | > 100 µM (inactive) | > 100 µM (inactive) | > 100 µM (inactive) | > 100 µM (inactive) | > 100 µM (inactive) | > 100 µM (inactive) | > 100 µM (inactive) | > 100 µM (inactive) | > 100 µM (inactive) | > 100 µM (inactive) |  | > 100 µM (inactive) | > 100 µM (inactive) | 71.6 µM (inactive) | > 100 µM (inactive) | > 100 µM (inactive) | > 100 µM (inactive) | > 100 µM (inactive) | 
CCn1c(O)c(C(=O)Nc2cccs2)c(=O)n(CC)c1=S | 21.5 µM (inactive) | 22.6 µM (inactive) | 16.8 µM (inactive) | 20.5 µM (inactive) | 21.9 µM (inactive) | 19.8 µM (inactive) | 25.5 µM (inactive) | 23.7 µM (inactive) | 14.2 µM (inactive) | 18.5 µM (inactive) | 20 µM (inactive) | 19.5 µM (inactive) | 16 µM (inactive) |  |  |  |  |  | 
CC1(SCC(N)C(=O)O)CC(=O)NC1=O (configuration not stated) | 62.4 µM (inactive) | > 100 µM (inactive) | > 100 µM (inactive) | > 100 µM (inactive) | > 100 µM (inactive) |  | > 100 µM (inactive) |  | > 100 µM (inactive) | > 100 µM (inactive) | > 100 µM (inactive) | > 100 µM (inactive) | > 100 µM (inactive) | > 100 µM (inactive) |  |  |  |  | 
O=[N+]([O-])c1ccc(/C=C/c2ccc(/C=C/c3ccc([N+](=O)[O-])cc3[N+](=O)[O-])cc2)c([N+](=O)[O-])c1 | > 100 µM (inactive) | > 100 µM (inactive) |  | > 100 µM (inactive) | > 100 µM (inactive) | > 100 µM (inactive) | > 100 µM (inactive) | > 100 µM (inactive) | > 100 µM (inactive) | > 100 µM (inactive) |  |  | > 100 µM (inactive) | > 100 µM (inactive) |  |  |  |  | 
CO/C(=N\N=C\c1ccc(Cl)cc1Cl)c1ccncc1 | > 10 µM (inactive) | > 10 µM (inactive) | > 10 µM (inactive) |  | > 10 µM (inactive) | > 10 µM (inactive) | > 10 µM (inactive) | > 10 µM (inactive) | > 10 µM (inactive) |  | > 10 µM (inactive) | > 10 µM (inactive) |  |  | > 10 µM (inactive) | 3.66 µM (inactive) | 4.51 µM (inactive) | 7.69 µM (inactive) | 
COc1ccc2c(c1)OCC1Cc3cccc(OC)c3OC21 (configuration not stated) |  | > 100 µM (inactive) | 41.6 µM (inactive) | 66.7 µM (inactive) |  | 96.2 µM (inactive) | 67.3 µM (inactive) | > 100 µM (inactive) | 45.8 µM (inactive) | > 100 µM (inactive) | > 100 µM (inactive) |  | 71.1 µM (inactive) | 93.3 µM (inactive) | 60.7 µM (inactive) | 28.7 µM (inactive) | 50.5 µM (inactive) | 30.1 µM (inactive) | 
Cc1c(-c2ccc(O)c(O)c2)oc(=O)c2c(O)cccc12 | 20 µM (inactive) | 7.35 µM (inactive) | 9.71 µM (inactive) | 5.82 µM (inactive) | 4.85 µM (inactive) | 8.05 µM (inactive) |  | 14.8 µM (inactive) | 53.3 µM (inactive) | 12.5 µM (inactive) | 5.27 µM (inactive) | 6.3 µM (inactive) |  | 10.4 µM (inactive) |  | 3.17 µM (inactive) |  | 1.55 µM (inactive) | 3.03 µM (inactive)
N#Cc1c(-c2ccc([N+](=O)[O-])cc2)cc(-c2ccc(Nc3ccnc4cc(C(F)(F)F)ccc34)cc2)[nH]c1=O | > 100 µM (inactive) | > 100 µM (inactive) | 12.2 µM (inactive) | > 100 µM (inactive) | > 100 µM (inactive) | 80.9 µM (inactive) | > 100 µM (inactive) | 21.4 µM (inactive) | > 100 µM (inactive) | > 100 µM (inactive) | > 100 µM (inactive) | 24.4 µM (inactive) | > 100 µM (inactive) | > 100 µM (inactive) | 16.3 µM (inactive) | > 100 µM (inactive) |  | > 100 µM (inactive) | 
COc1ccc(NC(=O)CC(=O)n2nc(-c3ccccc3)c(/N=N/c3ccccc3C(=O)O)c2-c2ccccc2)cc1 | > 100 µM (inactive) | > 100 µM (inactive) | > 100 µM (inactive) | 83.4 µM (inactive) | 52.7 µM (inactive) |  | 69.3 µM (inactive) | > 100 µM (inactive) | 25.2 µM (inactive) | 55.1 µM (inactive) | > 100 µM (inactive) | 63 µM (inactive) | > 100 µM (inactive) | > 100 µM (inactive) |  |  |  |  | 
O=C(CC1(O)C(=O)Nc2ccccc21)c1ccco1 (configuration not stated) | > 100 µM (inactive) | > 100 µM (inactive) | > 100 µM (inactive) | > 100 µM (inactive) | > 100 µM (inactive) | > 100 µM (inactive) | > 100 µM (inactive) | > 100 µM (inactive) | > 100 µM (inactive) | > 100 µM (inactive) | > 100 µM (inactive) | > 100 µM (inactive) | > 100 µM (inactive) |  |  |  |  |  | 
CCNCCNC(=O)c1ccc(Br)cc1 | > 100 µM (inactive) | > 100 µM (inactive) |  | > 100 µM (inactive) | > 100 µM (inactive) | > 100 µM (inactive) | > 100 µM (inactive) | > 100 µM (inactive) | > 100 µM (inactive) | > 100 µM (inactive) | > 100 µM (inactive) | > 100 µM (inactive) | > 100 µM (inactive) | > 100 µM (inactive) |  |  |  |  | > 100 µM (inactive)
COC(=O)[C@@]12CCCC(=O)[C@@H]1[C@H]1CCC[C@H]12 | > 100 µM (inactive) | > 100 µM (inactive) | > 100 µM (inactive) | > 100 µM (inactive) | > 100 µM (inactive) | > 100 µM (inactive) | > 100 µM (inactive) | > 100 µM (inactive) | > 100 µM (inactive) | > 100 µM (inactive) | > 100 µM (inactive) | > 100 µM (inactive) | > 100 µM (inactive) | > 100 µM (inactive) | > 100 µM (inactive) | > 100 µM (inactive) | > 100 µM (inactive) |  | 
c1ccc(-c2nnc(CCCCCCCCc3nnc(-c4ccccc4)o3)o2)cc1 | > 100 µM (inactive) | 46 µM (inactive) | > 100 µM (inactive) | 66.5 µM (inactive) | 34.7 µM (inactive) | > 100 µM (inactive) | > 100 µM (inactive) | > 100 µM (inactive) | > 100 µM (inactive) | > 100 µM (inactive) | > 100 µM (inactive) | > 100 µM (inactive) |  | < 0.01 µM (active) | 12.2 µM (inactive) | > 100 µM (inactive) |  |  | 
CCC(=O)c1cn(C)c(=O)c2ccccc12 | > 100 µM (inactive) | > 100 µM (inactive) | > 100 µM (inactive) | > 100 µM (inactive) | > 100 µM (inactive) | > 100 µM (inactive) | > 100 µM (inactive) | > 100 µM (inactive) | > 100 µM (inactive) | > 100 µM (inactive) | > 100 µM (inactive) | > 100 µM (inactive) | > 100 µM (inactive) | > 100 µM (inactive) |  |  |  |  | 
O=[N+]([O-])C(=C(Nc1ccccc1)Nc1ccccc1)/C(Cl)=C(\Cl)Br | 11.4 µM (inactive) |  | > 10 µM (inactive) |  | 2.92 µM (inactive) | 4.89 µM (inactive) | 0.671 µM (active) | 10.6 µM (inactive) | 16.5 µM (inactive) | 22 µM (inactive) | 13.7 µM (inactive) | > 10 µM (inactive) |  | 17.1 µM (inactive) | 15.6 µM (inactive) |  |  | 12.7 µM (inactive) | 27 µM (inactive)
CO/N=C(\C(=O)Nn1cn[n+](CC(=O)[O-])c1)c1csc(N)n1 | > 10 µM (inactive) | > 10 µM (inactive) | > 10 µM (inactive) | > 10 µM (inactive) | > 10 µM (inactive) | > 10 µM (inactive) |  |  | > 10 µM (inactive) |  | > 10 µM (inactive) |  | > 10 µM (inactive) | > 10 µM (inactive) | > 10 µM (inactive) |  | > 10 µM (inactive) | > 10 µM (inactive) | 
